The values that follow come from US20250257336A1, “ISOLATED OR ENGINEERED POLYPEPTIDES, MICROORGANISMS AS WELL AS METHOD FOR SYNTHESIZING POLYPHENOLIC PHYTOCHEMICALS PHOSPHATE DERIVATIVE USING THE POLYPEPTIDES OR MICROORGANISMS” (National Taiwan University, priority 2021, published 2025).

The conditions of data set [1]: D7P vs daidzein, G7P vs genistein; produced with Bacillus subtilis BCRC 80517; cited from earlier work.
Data set [2] in a line: enzymatic activity of the PPS of interest and its protein mutant strains, genistein as substrate (G7P formation, HPLC). Format: biochemical. Conditions: Mg2+/ATP, 40° C., 10 minutes, pH 7.8, FIG. 30. As to the method:
After vibration-based mixing and centrifugation (13,000 rpm, 4° C., 5 minutes), the resulting supernatant was collected, diluted, and then analyzed by HPLC. The activity unit was defined as the amount of enzyme required to yield 1 nmol of product per unit time.
Once an enzyme was prepared, its protein concentration was diluted to 0.1 mg/mL. The enzyme and the enzyme reaction liquid were mixed at a ratio of 1:1 (v/v) and were allowed to react at 40° C. for 10 minutes, at the end of which methanol was added to dilute the protein tenfold and thereby terminate the reaction. The changes in concentration of genistein (GEN) and G7P (a product of GEN phosphorylation) were analyzed. The catalytic activity of the PPS of interest in the present invention and its mutant strains were subsequently calculated and compared, as shown in FIG. 30. […] The activity test results of other protein mutant strains show no total loss of activity but a trend of decrease in activity. […] However, while the aforesaid important catalytic sites in the active domain for stabilizing the phosphate group were inferred with relatively great certainty, the amino acids in Arm1 either had relatively poor prediction results or had important catalytic sites composed of non-polar amino acids (which when substituted with Ala produce little change in property) such that the combined use of site-directed mutagenesis and enzymatic activity determination lacked accuracy.

For `O=c1c(-c2ccc(O)cc2)coc2cc(OP(=O)(O)O)ccc12` [D7P, daidzein 7-O-phosphate], the “water solubility relative to daidzein and genistein, respectively” value in data set [1] is “a hundred thousand times”. As for `O=c1c(-c2ccc(O)cc2)coc2cc(OP(=O)(O)O)cc(O)c12` [G7P, genistein 7-O-phosphate], the “water solubility relative to daidzein and genistein, respectively” value in data set [1] is “a hundred thousand times”.

B1: K378A: site-directed mutant of the PPS of interest, Lys378 substituted with Ala (protein)
chain: MKKRGVSNMYSVLFRQAEESSQLAGAKGMNLIKLTKHGLPVPDGFIIQTNALARFMEDNQLQETSENVESGIISGTFSDELKDELTSSFYKLRESYRSVAVRSSSASEDLEGASFAGQYETYLNIKTEEEFLAKVKECWASFFSGRVSSYKKKMNNQIAEPLMGIVVQGLIDSEMSGVIFSRNPVTHDDRELLISASYGLGEAVVSGSVTPDTFIVNKSSFEIQKEIGAKEIYMESAAEGIAEKETSEDMRSRFCLTDEQVIELAEITKKTEDLYGYPVDIEFGIADHQIYLLQARPITTIDQDKKAAEEKRSFMITDTDMNDFWLNMESNIEGPVSPLFSSFIVPALEYGLKKSMQKFPIGVVVDEVKLYRGHIYSANQGGQQPPSEDCGKELFPILSEHMYDIINHTYLPFYRTLDQLAQTEHTAESALDAFQKLKAFYLTAYEEHFNIVFPQILLTNKLQAMYQDIQGESENAHFYEMLTGKMNKSLETDRCLWLFSMEVQENPNLLTIFENNKPEQLQEKLEQTDEGRHFLKNVHEFLQEYGWRSVKSHDLIEQIWVENPYFALANIQNYVRNGYHFDNEFQKTKEKREKLYNEFLENIEDPGLRTEFDRYYQWTLNSANIKDDHHFYIDAMLDAKARIFLLKIGELLAENGVIQDREDLWFLYDDEVEQALLHPVSLQEKAEKRRQIFHEYELAQAPAYLGTPTKEQLKAAEEIVGAVIEDEKNTENHIFGIAASSGIATGPVKIIRDANEFSQFAPGDVLVCKMTTPLWTSLFQDAKAIITDTGGILSHAAIIAREYGIPAVLGTRTATERLRDGDIITVDGSSGKITVVSRS
Take B1: in data set [2], the “catalytic activity (relative specific activity) compared with the PPS of interest” value is listed as “relatively significant decrease in activity”.
